In data set [1] the test system is IL-2-stimulated STAT5 activity in CTLL-2 cells. Description: IL-2-stimulated STAT5 activity in CTLL-2 cells (Irf1-bla CTLL-2). The data set is classed as cell-based. Conditions: Mus musculus, mCTLL-2, IL-2 stimulated, read-out: IC50 T cells mechanism-based: mCTLL-2 IL-2 Stimulated STAT5 activity. As to the method: Mechanism-based inhibition assays using compound 7A (Table 1) were performed using GeneBLAzer® Technology (Invitrogen Corporation), according to manufacturer specifications. Briefly, GeneBLAzer® Technology uses a mammalian-optimized Beta-lactamase reporter gene (bla) combined with a FRET-enabled substrate to provide reliable and sensitive detection in intact cells. Cells were loaded with an engineered fluorescent substrate containing two fluorophores, coumarin and fluorescein. Without bla expression, the substrate molecule remains intact. In this state, excitation of the coumarin results in fluorescence resonance energy transfer to the fluorescein moiety and emission of green light. […] Excitation of the coumarin in the presence of Beta-lactamase activity results in a blue fluorescence signal. […]
An activator assay screen was run to obtain the EC80 concentration of the known activator to add in step 3. • 1. […] 4 μL of the EC80 concentration of activator, as determined in an Activator assay, was added to all wells containing compound and known inhibitor to bring the final assay volume to 40 μL. • 4. […] The assay plate was read on a fluorescence plate reader (Tecan Safire) and the data is analyzed. […]
Irf1-bla CTLL-2 cells were thawed and prepared as described above for the Activator Screen. […] The plate was read on a fluorescence plate reader.

In data set [2] the test system is B-cell lymphoma (Daudi cell line) xenograft. The data set is described as follows: Mouse xenograft study with B-cell lymphoma (Daudi cell line). The data set is classed as in vivo. Conditions: 28 days, Balb/c nude mice. The method, then: The anti-tumor effect of compounds of the invention can be evaluated in vivo. For example, the anti-tumor effect of compound 7A was determined using a mouse xenograft study with B-cell lymphoma (Daudi cell line). Mice (n=8 all) were administered compound 7A over a period of 28 days. The compound was dosed at 100 mg/kg IP QD and 300 mg/kg PO QD. Tumor volume was measured over time.
The Daudi cell line culture was prepared using Daudi cell line (ATCC, USA), RPMI 1640 medium (Invitrogen, USA), and FBS (Invitrogen, Australia). […]
The mice were weighed at each dosing and recorded every day. Tumor size was measured every other day in two dimensions using a caliper, and the volume was expressed in mm^3 using the formula: V=0.5 a×b^2 where a and b were the long and short diameters of the tumor, respectively. […] Tumor volume, weight of dissected tumors, and mouse body weight were measured and recorded. […]
The difference between the mean values of tumor volume in treated and vehicle groups was analyzed for significance using one way ANOVA test at each time point after log transformation. The difference between the mean values of tumor weight in treated and vehicle groups was analyzed for significance using t-test. […]

A short description of data set [3]: 6-day maximum tolerated dose safety study in female ICR nude mice. It is filed as in vivo. The method, then: Compounds of the invention are safe for administration. For example, excellent safety data was obtained in a 6-day maximum tolerated dose study at 100 mg/kg and 300 mg/kg of compound 7A, PO administered to six to eight-week old female ICR nude mice.
The subject of another data set is RL cells. Description: Proliferation of RL cells (Cell Titer-Glo). Conditions: Homo sapiens, B cells, outcome-based, read-out: IC50 Proliferation RL cells (Non-Hodjkin lymphoma). On the technique in general: In ATP-based viability assays light output follows the ATP content of the culture.
The nature of another data set: Solubility, turbidity. The data set is classed as physicochemical. Conditions: kinetic from dmso stock.
Where [4] appears, read: 100 mg/kg and 300 mg/kg PO, 6-day study, female ICR nude mice.

≈ marks a conversion by molar mass, not a printed value.

Here are results for one molecule from patent US8937065B2, “Compositions and methods for modulating a kinase” (Clevexel Pharma, priority 2011, dated 2015).

The term solubility denotes the dissolved amount per volume that the medium holds. With `O=C(CN1CCOCC1)Nc1cccc(-c2nc(-c3c[nH]c(C(=O)N4CCCC4)c3)cs2)c1` [7A, 2-morpholino-N-(3-(4-(5-(pyrrolidine-1-carbonyl)-1H-pyrrol-3-yl)thiazol-2-yl)phenyl)acetamide], the IC50 in data set [1] is 6.2 µM. Moreover, in data set [2] (100 mg/kg IP QD), the tumor growth inhibition is reported as 89%. This molecule also showed a tumor growth inhibition in data set [2] (300 mg/kg PO QD) of 87%. In data set [3] (setting [4]), the “change in food consumption” value is “no change in food consumption”; the clinical observation result is given as “no abnormalities in clinical observation”; the “necropsy (internal and external)” value is reported as “normal”; the weight loss result is “no weight loss”. For the same molecule, in data set [3] (PO-High 300 mg/kg), the “Individual food consumption (g) Day 1” value is reported as 4.45 g and the “Individual food consumption (g) Day 6” value turned out to be 5.13 g. Further, in data set [3] (PO-Low 100 mg/kg), the “Individual food consumption (g) Day 1” value was determined as 4.61 g and the “Individual food consumption (g) Day 6” value came to 5.44 g. In the data set with RL cells, the IC50 is 26 µM. Further, the solubility in the data set “Solubility, turbidity” fell in the range of 60 to 80 µM (≈ 27.9 to 37.2 µg/mL).
